This passage reports inhibition of growth results from ChEMBL document CHEMBL3797052 (Eur J Med Chem, 2016).

Holding throughout (format): functional
Test [1] can be described thus: Cytotoxicity against human HCT116 cells assessed as growth inhibition at 100 uM after 2 days by MTT assay. The note with it: HCT-116, 48 h, read-out: GI.
A short description of test [2]: Cytotoxicity against human HCT116 cells assessed as growth inhibition at 10 uM after 2 days by MTT assay. The note with it: HCT-116, 48 h, read-out: GI.
The nature of test [3]: Cytotoxicity against human SKBR3 cells assessed as growth inhibition at 100 uM after 2 days by MTT assay. The settings on record: SK-BR-3, 48 h, read-out: GI. (In general: Tetrazolium assays rely on reduction of a dye to a coloured formazan, in cell work by metabolically active cells.)
Test [4] in a line: Cytotoxicity against human SKBR3 cells assessed as growth inhibition at 10 uM after 2 days by MTT assay. The settings on record: SK-BR-3, 48 h, read-out: GI.

`CNC(=O)c1cc(Oc2ccc3nc(NC(=O)c4ccc(Cl)cc4)sc3c2)ccn1`: the inhibition of growth at 100 µM in test [1] stood at 80.5%; in test [3] it was 83%. Besides, the inhibition of growth at 10 µM in test [2] worked out at 27.5%; in test [4], 18.9%.
As to `CNC(=O)c1cc(Oc2ccc3nc(NC(=O)c4cc5ccccc5o4)sc3c2)ccn1`, the inhibition of growth at 100 µM in test [1] stood at 77.5%; in test [3], 52.4%. Besides, the inhibition of growth at 10 µM in test [2] is 9.15%; in test [4], 54.4%.
On the same counts, the results for `CNC(=O)c1cc(Oc2ccc3nc(NC(=O)c4cc(Cl)cc(Cl)c4)sc3c2)ccn1` are 15.8%, 84.2%, 13.4% and 9.62%.
On the same counts, the results for `CNC(=O)c1cc(Oc2ccc3nc(NC(=O)Nc4ccc(N5CCOCC5)cc4)sc3c2)ccn1` are 73.3%, 77.7%, 1.58% and 14.1%.
On the same counts, the results for `CNC(=O)c1cc(Oc2ccc3nc(NC(=O)Nc4cc(C(F)(F)F)ccc4Cl)sc3c2)ccn1` are 90%, 89.1%, 16.3% and 28.3%.
In the case of `CNC(=O)c1cc(Oc2ccc3nc(NC(=O)Nc4ccc(Cl)cc4Cl)sc3c2)ccn1`, the inhibition of growth at 100 µM amounted to 93.6% in test [1] and 91.7% in test [3]. Also, the inhibition of growth at 10 µM in test [2] is 32.2%; in test [4], 22.3%.
On the same counts, the results for `CNC(=O)c1cc(Oc2ccc3nc(NC(=O)c4ccc(Cl)cc4Cl)sc3c2)ccn1` are 64.4%, 81%, 15.1% and 14%.
The matching figures for `CNC(=O)c1cc(Oc2ccc3nc(NC(=O)Nc4ccc(Br)cc4)sc3c2)ccn1`: 80%, 69.2%, 12.1% and 26.7%.
Regarding `CNC(=O)c1cc(Oc2ccc3nc(NC(=O)Nc4ccc(N5CCN(C)CC5)cc4)sc3c2)ccn1`, the inhibition of growth at 100 µM in test [1] is 95%; in test [3], 86.4%. Further, the inhibition of growth at 10 µM in test [2] worked out at 24.6%; in test [4] it was 30.5%.
On the same counts, the results for `CNC(=O)c1cc(Oc2ccc3nc(NC(=O)Nc4ccc(F)cc4)sc3c2)ccn1` are 83.8%, 72.9%, 12.2% and 14.2%.
